Measured values: article PMC9139167, “Rational Discovery of Antiviral Whey Protein-Derived Small Peptides Targeting the SARS-CoV-2 Main Protease” (Biomedicines, 2022)
Where a SMILES comes first, the peptide text is derived from it. The star is where a group is joined. Cbz = O=C(OCc1ccccc1)*

Assays:
[1] = target: SARS-CoV-2 3CL Protease (Severe acute respiratory syndrome coronavirus 2, UniProt P0DTD1); assay: biochemical
[2] = test system: 3C^pro; settings: ref [56]; cited from earlier work
[3] = test system: DPP-4; settings: ref [33],[34]; cited from earlier work
Excerpt: Recently, we investigated ACE inhibitory activity by peptide sequences, derived from the enzymatic hydrolysis of whey proteins and predicted by molecular docking and related prioritization studies.

[4] = test system: Gram-positive bacteria; settings: ref [33],[34]; cited from earlier work
[5] = read-out: Relative Inhibition (RI %)

CC[C@H](C)[C@H](N)C(=O)N[C@@H](C)C(=O)N[C@@H](CCC(=O)O)C(=O)N[C@@H](CCCCN)C(=O)O [IAEK] (H-IAEK-OH)
IC50 [1]: 154 µM | inhibition at 0.036 µM [1, 5]: 34.6 ± 1.13% | inhibition at 0.36 µM [1, 5]: 40.5 ± 1.26% | inhibition at 3.6 µM [1, 5]: 46.5 ± 3.48% | inhibition at 36.6 µM [1, 5]: 46.6 ± 3.79% | inhibition at 109.8 µM [1, 5]: 49.7 ± 3.16% | inhibition at 183 µM [1, 5]: 87.7 ± 1.61% | inhibition at 366 µM [1, 5]: 84 ± 3.39%

Cbz-Leu-Phe-Gln-aldehyde [tripeptide aldehydes]
inhibitory activity against 3C^pro [2]: poor inhibitory activity

IPAVFK
DPP-4 inhibitory activity [3]: exhibited DPP-4 inhibitory activity | antimicrobial activity [4]: antimicrobial activity against Gram-positive bacteria
